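Five compound concentrations were applied to cells in 96-well plates for 48 hours; endpoints were derived by simple linear interpolation of the resulting dose-response curve. The concentration for 50% growth inhibition is given as GI50. TGI denotes the concentration required for complete inhibition of growth.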
Columns and labels:
Experiment in all cases: NCI anticancer screen, dose series, 48 h
A549 NSCLC = tested on: A549 NSCLC
COLO 205 colon = tested on: COLO 205 colon
HT29 colon = tested on: HT29 colon
MCF7 breast = tested on: MCF7 breast
MDA-N = tested on: MDA-N
TK-10 renal = tested on: TK-10 renal
U251 CNS = tested on: U251 CNS
DLD-1 colon = tested on: DLD-1 colon
DMS 114 small cell lung = tested on: DMS 114 small cell lung
LXFL 529 NSCLC = tested on: LXFL 529 NSCLC
MDA-MB-435 = tested on: MDA-MB-435
SR leukemia = tested on: SR leukemia

Row | SMILES | TGI (A549 NSCLC) [µM] | TGI (COLO 205 colon) [µM] | TGI (HT29 colon) [µM] | TGI (MCF7 breast) [µM] | TGI (MDA-N) [µM] | TGI (TK-10 renal) [µM] | TGI (U251 CNS) [µM] | TGI (DLD-1 colon) [µM] | TGI (DMS 114 small cell lung) [µM] | TGI (LXFL 529 NSCLC) [µM] | TGI (MDA-MB-435) [µM] | TGI (SR leukemia) [µM] | GI50 (A549 NSCLC) [µM] | GI50 (COLO 205 colon) [µM] | GI50 (MCF7 breast) [µM] | GI50 (MDA-MB-435) [µM] | GI50 (SR leukemia) [µM] | GI50 (TK-10 renal) [µM]
1 | O=C(C=P(c1ccccc1)(c1ccccc1)c1ccccc1)c1cccc(-c2cccc([N+](=O)[O-])c2)c1 | > 100 | 2.91 | 4.17 | > 100 | 6.95 | > 100 | > 100 | – | – | – | – | – | – | – | – | – | – | –
2 | Cc1nc2c(n1C)C(=O)c1nc(CBr)[nH]c(=O)c1C2=O | > 100 | > 100 | > 100 | – | – | > 100 | > 100 | > 100 | > 100 | > 100 | – | – | – | – | – | – | – | –
3 | Nc1ccc(-c2cssc2=S)cc1 | > 100 | > 100 | > 100 | > 100 | > 100 | > 100 | > 100 | – | – | – | > 100 | – | – | – | – | – | – | –
4 | COc1ccc2c(c1)CCN=C2Cc1cc(OC)c(OC)cc1CCCl | > 100 | > 100 | > 100 | > 100 | > 100 | > 100 | > 100 | – | – | – | > 100 | > 100 | – | – | – | – | – | –
5 | N#Cc1c(NC(=S)Nc2ccc(Cl)cc2)sc2c1CCCC2 | – | > 100 | > 100 | > 100 | > 100 | > 100 | > 100 | – | – | – | > 100 | 89.1 | – | – | – | – | – | –
6 | OC1(c2ccc(Cl)cc2)c2c(ccc3c2OCO3)C2=NCCN21 (stereo unspecified) | > 100 | 33 | 91.5 | > 100 | 87.4 | 45.7 | > 100 | – | – | – | > 100 | 53 | – | – | – | – | – | –
7 | COc1ccc(C2CC(c3cccc(Nc4ccncc4)c3)=NN2c2ccc(Cl)cc2)cc1 (stereo unspecified) | 3.65 | 3.76 | – | 3.63 | – | 3.5 | – | – | – | – | 3.05 | 3.38 | 1.87 | 1.78 | 1.83 | 1.63 | 1.35 | 1.82
8 | CC(=O)Oc1c(C)c2c(O)c3c1C1=C(OCOC1=C(C)C3=O)/C(C)=C\C(C)(O)C(O)C(C)C(O)C1C(=O)OC(C(C)C1O)C(C)(O)/C=C/C=C(C)C(=O)N2 (stereo unspecified) | > 100 | > 100 | > 100 | > 100 | > 100 | – | > 100 | – | – | – | > 100 | 83.3 | – | – | – | – | – | –
9 | O=C(N/N=C(/COc1ccc(Cl)cc1)N=Cc1cccnc1)c1ccncc1 | > 100 | > 100 | > 100 | > 100 | 65.8 | > 100 | > 100 | – | – | – | > 100 | – | – | – | – | – | – | –
10 | COCO[C@@H]1C[C@H]2C(=O)N(COC)c3ccccc3C(=O)N2C1 | > 100 | > 100 | > 100 | > 100 | > 100 | > 100 | > 100 | – | – | – | > 100 | – | – | – | – | – | – | –
11 | CC(=O)c1c(SCCN2CCCC2)n(-c2ccccc2)c(=S)n(-c2ccccc2)c1=O | 15.1 | 3.48 | 20.7 | 3.01 | 19.9 | 8.5 | 47.9 | – | – | – | 13.2 | > 100 | – | – | – | – | – | –
12 | CS(=O)(=O)OC1CN2CCC1CC2 (stereo unspecified) | > 100 | > 100 | > 100 | > 100 | > 100 | > 100 | > 100 | – | – | – | > 100 | > 100 | – | – | – | – | – | –
13 | C/C(=C\c1ccccc1)C(=O)NCc1ccc(C(=O)NCCC(C)C)cc1 | > 100 | > 100 | > 100 | > 100 | > 100 | > 100 | > 100 | – | – | – | > 100 | – | – | – | – | – | – | –
14 | CCN(CC)CCCC(C)Nc1ccnc2cc3ccccc3cc12 (stereo unspecified) | > 100 | 11.7 | – | 39 | – | 78.6 | 42.1 | – | – | – | 24.2 | > 100 | – | – | – | – | – | –
15 | Cc1cc2c(cc1Cl)SC(c1ccccc1)C(=O)NS2(=O)=O (stereo unspecified) | – | – | > 100 | > 100 | > 100 | > 100 | 60.5 | – | – | – | > 100 | 73.8 | – | – | – | – | – | –
16 | COC(=O)c1cc2c3c(cc(N(C)C)c2[nH]1)N(C(=O)c1cc2cc(OC)c(OC)c(OC)c2[nH]1)CC3CCl (stereo unspecified) | – | 0.0131 | > 25 | 2.42 | < 0.0025 | – | – | – | – | – | < 0.0025 | – | – | – | – | – | – | –
17 | CSc1nc(NC2OCC(OC(C)=O)C(OC(C)=O)C2OC(C)=O)c(N=C(C)C(C)=O)c(=O)[nH]1 (stereo unspecified) | > 100 | > 100 | > 100 | – | – | > 100 | > 100 | > 100 | > 100 | > 100 | – | > 100 | – | – | – | – | – | –
18 | C#CCn1ncc2c(SC)ncnc21 | > 100 | > 100 | > 100 | > 100 | > 100 | > 100 | > 100 | – | – | – | > 100 | > 100 | – | – | – | – | – | –
19 | Cc1cccc2cc3c(ccc4ccccc43)c[n+]12 | > 100 | 31.6 | > 100 | > 100 | > 100 | > 100 | 40.6 | – | – | – | > 100 | > 100 | – | – | – | – | – | –
20 | CCOC(=O)C[C@@H]1C2(C=C[C@@]13CO3)OCC(C)(C)CO2 | > 100 | > 100 | > 100 | > 100 | > 100 | > 100 | > 100 | – | – | – | > 100 | > 100 | – | – | – | – | – | –
